Data reported in patent US20240246920A1, “TRIAZOLE DERIVATIVES WITH ANTIFUNGAL ACTIVITY” (King's College London, priority 2020, published 2024).
≈ marks a conversion by molar mass, not a printed value. Where two headings read alike, the source gives them in different places.

How the values were obtained:
[1] = system: C. tropicalis NCPF8760; test: Candida panel MIC, serial dilution in 96-well plates; format: cell-based
Summary of the method: (§1)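 Broth microdilution in RPMI 1640 with 2% glucose and MOPS at pH 7.0, compound 128 to 0.25 μg/mL, inoculum 0.5-5×10^5/mL. Incubation 24 h at 37 °C. MIC is the lowest concentration giving ≥50% growth inhibition versus drug-free control, read at OD530.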

[2] = system: Candida auris TDG2512; test: as above; format: cell-based; details: Candidozyma auris, TDG2512; Table 4, extended panel; 24 hours, ≥50% inhibition; read-out: MIC Candida auris TDG2512
Summary of the method: as §1

[3] = system: C. auris TDG1912; test: as above; format: cell-based; details: Candidozyma auris, TDG1912; Table 4; 24 hours, ≥50% inhibition; read-out: MIC C. auris TDG1912
Summary of the method: as §1

[4] = system: Candida auris TDG1102; test: as above; format: cell-based; details: Candidozyma auris, TDG1102; Table 4, extended panel; 24 hours, ≥50% inhibition; read-out: MIC Candida auris TDG1102
Summary of the method: as §1

[5] = system: Candida auris TDG2211; test: microbe, parasite or virus in culture; format: cell-based; details: Candidozyma auris, TDG2211; Table 4, extended panel; 24 hours, ≥50% inhibition; read-out: MIC Candida auris TDG2211
Summary of the method: (§2)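 Starter cultures grown overnight at 37° C in RPMI 1640/MOPS/2% glucose, pH 7.0; inoculum 0.5-5×10^5/mL with compound serially diluted from DMSO into media.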

[6] = system: Candida auris TDG2506; test: microbe, parasite or virus in culture; format: cell-based; details: Candidozyma auris, TDG2506; Table 4, extended panel; 24 hours, ≥50% inhibition; read-out: MIC Candida auris TDG2506
Summary of the method: as §2

[7] = system: C. auris 8971; test: Candida panel MIC, serial dilution in 96-well plates; format: cell-based, Candida auris; details: Candidozyma auris, 8971; Table 4, extended panel; 24 hours, ≥50% inhibition; read-out: MIC C. auris 8971
Summary of the method: as §2

[8] = system: C. auris 8977; test: as above; format: cell-based, Candida auris; details: Candidozyma auris, 8977; Table 4, extended panel; 24 hours, ≥50% inhibition; read-out: MIC C. auris 8977
Summary of the method: as §2

[9] = system: C. auris 8984; test: as above; format: cell-based, Candida auris; details: Candidozyma auris, 8984; Table 4, extended panel; 24 hours, ≥50% inhibition; read-out: MIC C. auris 8984
Summary of the method: as §2

[10] = system: C. parapsilosis NCPF3209; test: microbe, parasite or virus in culture; format: cell-based, Candida parapsilosis; details: Lodderomyces parapsilosis
Summary of the method: (§3)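 MIC taken as lowest concentration inhibiting growth ≥50% relative to drug-free control, from OD530 after 24 hours at 37° C. Fungi at 0.5-5×10^5/mL were exposed to serially diluted compound in RPMI 1640/MOPS/2% glucose medium adjusted to pH 7.0.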

[11] = system: C. albicans NCPF3281; test: Candida panel MIC, serial dilution in 96-well plates; format: cell-based, Candida albicans; details: NCPF3281, read-out: MIC C. albicans NCPF3281
Summary of the method: as §1

[12] = system: Galleria mellonella larvae; test: Toxicity to larvae in the Galleria mellonella model; format: in vivo; details: dose of 50 mg/kg
[13] = system: C. albicans 3880; test: Candida albicans panel MIC; format: cell-based; details: Table 6, Candida albicans panel
Protocol: (§4) The minimum inhibitory concentration of test compounds were determined in a panel of Candida species (see Table 4 below), using the a serial dilution method in 96-well plates using the following protocol.
(§5) Starter cultures of fungal strains to be tested were grown in 3 mL of RPMI 2% glucose media incubated at 37° C. with shaking at 200 rpm overnight. The culture media used was 900 mL H2O; 10.4 g RPMI 1640 (with L-glutamine and a pH indicator but without bicarbonate); 34.5 g MOPS and 18 g glucose. The pH of the media was adjusted to 7.0 with 1 M sodium hydroxide.
(§6) Solutions of the compound to be tested were prepared by dissolving the compound in DMSO and subsequently into media to the desired concentrations. 200 μL of compound solution was then added to the wells of the 96-well plate using a serial dilution method row-by row of the plate to give a compound concentration gradient across the plate of from 128 μg/mL to 0.25 μg/mL. The last two rows of each plate were control rows containing the culture media alone and the media plus fungi.
(§7) The fungi starter cultures were diluted 1:10 in water in cuvettes. This was then further diluted to an optical density (OD600) of 0.01 in media. 100 μL of the fungi was added to each well giving a starting concentration of fungus of 0.5-5×10^5/mL. One species of fungus was used on each plate. The plates were then held at 37° C. for 24 hours.
(§8) A plate reader was used to measure growth in each well at OD530 nm and the MIC was determined for each test compound. The MIC is defined as the lowest concentration giving rise to inhibition of ≥50% of that of the drug-free control well containing the fungus and media.
(§9) The compounds shown in Table 6 were tested against a further panel of Candida albicans.

[14] = system: C. albicans 3881; test: Candida albicans panel MIC; format: cell-based; details: Table 6, Candida albicans panel
Protocol: as §4, §5, §6, §7, §8, §9

[15] = system: C. albicans 3645; test: Candida albicans panel MIC; format: cell-based; details: Table 6, Candida albicans panel
Protocol: as §4, §5, §6, §7, §8, §9

[16] = system: C. albicans 3363; test: Candida albicans panel MIC; format: cell-based; details: Table 6, Candida albicans panel
Protocol: as §4, §5, §6, §7, §8, §9

[17] = system: C. albicans 3990; test: Candida albicans panel MIC; format: cell-based; details: Table 6, Candida albicans panel
Protocol: as §4, §5, §6, §7, §8, §9

[18] = system: C. albicans 3882; test: Candida albicans panel MIC; format: cell-based; details: Table 6, Candida albicans panel
Protocol: as §4, §5, §6, §7, §8, §9

[19] = system: C. albicans 8112; test: Candida albicans panel MIC; format: cell-based; details: Table 6, Candida albicans panel
Protocol: as §4, §5, §6, §7, §8, §9

[20] = system: C. krusei NCPF3876; test: microbe, parasite or virus in culture; format: cell-based, Candida krusei; details: Pichia kudriavzevii
Summary of the method: as §3

[21] = system: C. auris strain TDG1912; test: Galleria mellonella infection model, larval survival; format: in vivo; details: G. mellonella infected with C. auris TDG1912; survival over 120 hours
Protocol: The effects of test compounds in-vivo was assessed using a Galleria mellonella infection model.
G. mellonella were injected in a proleg with 10 μL of C. auris strain TDG1912 (OD4) at a concentration of 1×10^6 cfu/10 μL using a Hamilton syringe and left for 30 minutes to recover from injection and to allow infection to begin. The G. mellonella were then injected with 10 μL of the compound of the invention at either 50 mg/kg (10% DMSO) or 20 mg/kg (4% DMSO) or PBS containing 10% DMSO as an infection-only control. 10 larvae were selected for each treatment, and the experiment was repeated 3 times for the test compound and fluconazole. Survival of larvae was monitored for a 5 day period and results are presented as % survival over 120 hours (see FIG. 1).

[22] = system: C. glabrata NCPF8018; test: Candida panel MIC, serial dilution in 96-well plates; format: cell-based, Candida glabrata; details: Nakaseomyces glabratus
Summary of the method: as §3

OC(CN1CCC(Nc2ccc(OCCN3CCOCC3)cc2)CC1)(Cn1cncn1)c1ccc(F)cc1F (stereo not drawn) [Example 6, 2-(2,4-Difluorophenyl)-1-(4-((4-(2-morpholinoethoxy)phenyl)amino)piperidin-1-yl)-3-(1H-1,2,4-triazol-1-yl)propan-2-ol]
MIC ([1]; NCPF8760, Table 4, common panel, 24 hours, ≥50% inhibition, read-out: MIC C. tropicalis NCPF8760): 0.008 µg/mL (≈ 0.0147 µM)
MIC ([1]; NCPF8760, read-out: MIC C. Tropicalis NCPF8760): 0.008 µg/mL (≈ 0.0147 µM)
MIC [2]: 0.015 µg/mL (≈ 0.0276 µM)
MIC [3]: 0.125 µg/mL (≈ 0.23 µM)
MIC [4]: 0.12 µg/mL (≈ 0.221 µM)
MIC [5]: 0.5 µg/mL (≈ 0.921 µM)
MIC [6]: 0.25 µg/mL (≈ 0.461 µM)
MIC [7]: 0.03 µg/mL (≈ 0.0553 µM)
MIC [8]: 0.06 µg/mL (≈ 0.111 µM)
MIC [9]: 0.125 µg/mL (≈ 0.23 µM)
MIC ([10]; NCPF3209, read-out: MIC C. Parapsilosis NCPF3209): 0.015 µg/mL (≈ 0.0276 µM)
MIC ([10]; NCPF3209, Table 4, common panel, 24 hours, ≥50% inhibition, read-out: MIC C. parapsilosis NCPF3209): 0.015 µg/mL (≈ 0.0276 µM)
MIC ([11]; Candida albicans, Table 4, common panel, 24 hours, ≥50% inhibition): 0.004 µg/mL (≈ 0.00737 µM)
MIC ([11]; Table 6, Candida albicans panel): ≤ 0.125 µg/mL
Toxicity to the larvae [12]: No toxicity
MIC [13]: 0.25 µg/mL (≈ 0.461 µM)
MIC [14]: 0.5 µg/mL (≈ 0.921 µM)
MIC [15]: 0.0156 µg/mL (≈ 0.0287 µM)
MIC [16]: 0.25 µg/mL (≈ 0.461 µM)
MIC [17]: 0.25 µg/mL (≈ 0.461 µM)
MIC [18]: 0.5 µg/mL (≈ 0.921 µM)
MIC [19]: 0.0156 µg/mL (≈ 0.0287 µM)
MIC ([20]; NCPF3876, read-out: MIC C. Krusei NCPF3876): 0.125 µg/mL (≈ 0.23 µM)
MIC ([20]; NCPF3876, Table 4, common panel, 24 hours, ≥50% inhibition, read-out: MIC C. krusei NCPF3876): 0.125 µg/mL (≈ 0.23 µM)
Protection against multi-drug resistant C. auris (larval survival) [21]: statistically significant protection
MIC ([22]; NCPF8018, read-out: MIC C. Glabrata NCPF8018): 2 to 4 µg/mL (≈ 3.69 to 7.37 µM)
MIC ([22]; NCPF8018, Table 4, common panel, 24 hours, ≥50% inhibition, read-out: MIC C. glabrata NCPF8018): 0.25 µg/mL (≈ 0.461 µM)
